Laboratory results taken from patent US4772625A, “1,3-dioxan-5-yl-hexenoic acids” (Imperial Chemical Industries PLC, priority 1985, dated 1988).

Columns and labels:
[1] = target: T1, U46619 stimulated platelet aggregation (Homo sapiens, UniProt P21731); assay: Test (b): blood platelet aggregation test, human citrated platelet-rich plasma, U46619 stimulated; type: cell-based
T1 construct: aggregating human, citrated, platelet-rich plasma; from tissue; host or cells: human citrated platelet-rich plasma (platelets)
T1 sequence (P21731 1-343): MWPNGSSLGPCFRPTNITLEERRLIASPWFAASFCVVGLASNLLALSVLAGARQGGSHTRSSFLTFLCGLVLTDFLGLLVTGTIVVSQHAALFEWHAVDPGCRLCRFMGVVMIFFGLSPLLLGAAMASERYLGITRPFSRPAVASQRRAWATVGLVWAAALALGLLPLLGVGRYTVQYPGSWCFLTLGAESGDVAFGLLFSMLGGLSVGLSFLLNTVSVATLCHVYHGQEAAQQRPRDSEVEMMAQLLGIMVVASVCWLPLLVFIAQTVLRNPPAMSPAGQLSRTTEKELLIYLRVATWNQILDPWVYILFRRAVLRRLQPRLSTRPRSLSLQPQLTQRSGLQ
Source text: (b) a blood platelet aggregation test based on that described by Born (Nature, 1962, 194, 927-929) and involving:
(i) aggregating human, citrated, platelet-rich plasma by addition of the TXA2 mimetic agent U46619 so that a dose-response curve is generated;
(ii) generating a dose-response curve for U46619 stimulated platelet aggregation in the presence of increasing amounts of test compound (generally in the range 10^-5 M to 10^-10 M); and
(iii) calculating a KB value indicating potency of TXA2 antagonism for the test compound, averaged over several concentrations, from the calculated 50% response value for U46619 aggregation in the presence and absence of test compound; and
(§1) Using the above test procedures (a)-(c), the following representative results have been obtained with the compounds of formula I (X=Y=H) wherein (i) R is isopropyl, (ii) R is t-butyl; or (iii) R is sec-butyl, respectively: […]

[2] = system: U46619 induced bronchoconstriction; assay: Test (c): U46619 induced bronchoconstriction, Konzett-Rossler anaesthetised guinea-pig model; type: in vivo; conditions: 2 hours after oral dosing at 0.05 mg/kg
Source text: (c) a bronchoconstriction test involving measuring the inhibition by a test compound of the bronchoconstriction induced in the Konzett-Rossler, anaesthetised guinea-pig model (as modified by Collier and James, Brit. J. Pharmacol., 1967, 30, 283-307) by intravenous administration of the TXA2 mimetic agent, U46619 and involving:
(i) obtaining a cumulative dose-response curve to U46619 induced bronchoconstriction by intravenous administration of constant volumes of increasing concentrations of U46619 (0.2-4 μg/kg) in physiological saline solution and expressing bronchoconstriction as the maximum of that theoretically obtainable with no air flow to the test animal;
(ii) generating a cumulative dose-response curve to U46619 induced bronchoconstriction at 30 minute intervals for 3 hours after oral dosing of test compound; and
(iii) calculating a dose-ratio for the test compound (that is the ratio of concentration of U46619 required to cause 50% bronchoconstriction in the presence and absence of test compound) indicating the potency of TXA2 antagonism.
as §1

[3] = system: U46619 induced hypertension; assay: Test (d): U46619 induced hypertension in anaesthetised rats; type: in vivo, rat (Alderley Park strain)
Experimental: (d) Male rats (Alderley Park strain) are anaesthetised with sodium pentobarbital and blood pressure is monitored at the carotid artery. The TXA2 mimetic agent U46619 is administered intravenously via the jugular vein at 5 μg/kg to induce a 20-30 mmHg (2640-3940 pascal) increase in systolic blood pressure. The process is repeated twice to ensure adequacy of response. A test compound is then administered either intravenously (via the jugular vein) or orally (via a cannula) directly into the stomach and the animal is challenged with U46619, five minutes after dosing with test compound and then successively every ten minutes until the hypertensive effect of U46619 is no longer blocked.
Similarly, using test procedure (d) referred to above, the following representative results were obtained on inhibition of U46619 induced hypertension with the compounds of formula I referred to above: […]

TXA2 [4] = target: T2, TXA2 (Oryctolagus cuniculus, UniProt Q6WQI8); assay: Test (a): rabbit aortic strip model, TXA2 or U46619 as agonist; type: cell-based; conditions: rabbit aortic strip, ±0.05
T2 construct: functional contraction assay (pA2)
T2 sequence (Q6WQI8 1-233): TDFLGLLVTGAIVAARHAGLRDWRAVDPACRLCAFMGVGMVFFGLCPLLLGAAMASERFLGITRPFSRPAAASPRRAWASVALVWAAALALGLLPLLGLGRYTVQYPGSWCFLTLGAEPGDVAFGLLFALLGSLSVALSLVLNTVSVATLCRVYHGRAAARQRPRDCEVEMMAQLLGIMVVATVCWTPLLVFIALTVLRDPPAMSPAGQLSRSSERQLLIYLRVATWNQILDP
Experimental: (§2) (a) The rabbit aortic strip model devised by Piper and Vane (Nature, 1969, 223, 29-35) using as agonist a freshly prepared sample of TXA2, generated by addition of arachidonic acid (25 μg) to citrated, platelet rich rabbit plasma (250 μl ) and allowing the mixture to aggregate fully over 90 seconds before use; alternatively the TXA2 mimetic agent known as U46619 (described by R. L. Jones et alia in "Chemistry, Biochemistry and Pharmacological Activity of Prostanoids" edited by S. M. Roberts and F. Scheinmann, at page 211; Pergamon Press, 1979) may be used as the agonist;
as §1

TXA2 [5] = assay: TXA2 antagonist properties (test not specified; one or other of the standard tests); conditions: qualitative statement
Source text: As stated earlier, the acids of formula I are antagonists of one or more of the actions of TXA2, for example certain of its actions on blood platelets, the vasculature and/or the lung.

[6] = target: T3, (Oryctolagus cuniculus, UniProt Q6WQI8); assay: Test (a): rabbit aortic strip model, TXA2 or U46619 as agonist; type: cell-based; conditions: comparison compound
T3 construct: functional contraction assay (pA2)
T3 sequence (Q6WQI8 1-233): T2 sequence (Q6WQI8 1-233)
Experimental: as §2, §1

[7] = 1 hour after oral dose of 0.5 mg/kg

| Kb [1] [nM] | pA2 (±0.05) (TXA2 [4]) | pA2 [6] | Structure (SMILES) | dose ratio (U46619 bronchoconstriction) [2] | inhibition of U46619 induced hypertension ([3]; 1 hour after oral dose of 0.1 mg/kg) [%] | inhibition of U46619 induced hypertension [3, 7] [%] | TXA2 antagonist properties (TXA2 [5]) |
| --- | --- | --- | --- | --- | --- | --- | --- |
| 13.1 | 7.86 | – | CC(C)(C)[C@H]1OC[C@@H](C/C=C\CCC(=O)O)[C@@H](c2ccccc2O)O1 (relative stereo) [compound (ii), 4(Z)-6-([2,4,5-cis]-2-t-butyl-4-o-hydroxyphenyl-1,3-dioxan-5-yl)hexenoic acid] | > 110 | > 75 | – | – |
| 13.4 | 7.80 | – | CCC(C)C1OCC(CC=CCCC(=O)O)C(c2ccccc2O)O1 (stereo not drawn) [compound (iii), 4(Z)-6-([2,4,5-cis-]-2-sec-butyl-4-o-hydroxyphenyl-1,3-dioxan-5-yl)hexenoic acid] | > 75 | – | > 70 | – |
| – | – | 5.9 | CC(C)[C@H]1OC[C@@H](C/C=C\CCCC(=O)O)[C@@H](c2ccccc2)O1 (relative stereo) [5(Z)-7-([2,4,5-cis]-2-isopropyl-4-phenyl-1,3-dioxan-5-yl)heptenoic acid, reference compound] | – | – | – | signficantly lower TXA2 antagonist properties |
| 17.9 | 7.71 | – | CC(C)[C@H]1OC[C@@H](C/C=C\CCC(=O)O)[C@@H](c2ccccc2O)O1 (relative stereo) [compound (i), 4(Z)-6-([2,4,5-cis]-4-o-hydroxyphenyl-2-isopropyl-1,3-dioxan-5-yl)hexenoicacid] | > 75 | – | > 70 | – |
